Test results as given in the supplement of paper PMC10307832.

Key:
Assay in all cases: relative viability (nuclei count vs DMSO), 5 days (fraction); higher = more cells survive
Alisertib + Linsitinib = compound: COc1cc(Nc2ncc3c(n2)-c2ccc(Cl)cc2C(c2c(F)cccc2OC)=NC3)ccc1C(=O)O [Alisertib] + C[C@]1(O)C[C@@H](c2nc(-c3ccc4ccc(-c5ccccc5)nc4c3)c3c(N)nccn32)C1 [Linsitinib] (partner 1 µM)
In short: (§1)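 Medians of duplicate plates are given as relative viability. That measure is the nuclei count in treated wells divided by the count in vehicle wells. Counts were taken on 4× images of lung cancer cell lines in 1536-well plates, 5 days after pin-tool dosing the day after seeding with one drug alone or a fixed anchor-drug dose plus five library-drug doses (not always all listed) in √10 steps.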

Alisertib + Foretinib = compound: COc1cc(Nc2ncc3c(n2)-c2ccc(Cl)cc2C(c2c(F)cccc2OC)=NC3)ccc1C(=O)O [Alisertib] + COc1cc2c(Oc3ccc(NC(=O)C4(C(=O)Nc5ccc(F)cc5)CC4)cc3F)ccnc2cc1OCCCN1CCOCC1 [Foretinib] (partner 0.25 µM)
In short: as §1

Alisertib + Luminespib = compound: COc1cc(Nc2ncc3c(n2)-c2ccc(Cl)cc2C(c2c(F)cccc2OC)=NC3)ccc1C(=O)O [Alisertib] + CCNC(=O)c1noc(-c2cc(C(C)C)c(O)cc2O)c1-c1ccc(CN2CCOCC2)cc1 [Luminespib] (partner 0.01 µM)
In short: as §1

Alisertib + Navitoclax = compound: COc1cc(Nc2ncc3c(n2)-c2ccc(Cl)cc2C(c2c(F)cccc2OC)=NC3)ccc1C(=O)O [Alisertib] + CC1(C)CCC(c2ccc(Cl)cc2)=C(CN2CCN(c3ccc(C(=O)NS(=O)(=O)c4ccc(N[C@H](CCN5CCOCC5)CSc5ccccc5)c(S(=O)(=O)C(F)(F)F)c4)cc3)CC2)C1 [Navitoclax] (partner 0.5 µM)
In short: as §1

| Cell Line | relative viability (Alisertib + Linsitinib; first compound 0.005 µM) | relative viability (Alisertib + Linsitinib; first compound 0.01581 µM) | relative viability (Alisertib + Linsitinib; first compound 0.05 µM) | relative viability (Alisertib + Linsitinib; first compound 0.1581 µM) | relative viability (Alisertib + Linsitinib; first compound 0.5 µM) | relative viability (Alisertib + Foretinib; first compound 0.005 µM) | relative viability (Alisertib + Foretinib; first compound 0.01581 µM) | relative viability (Alisertib + Foretinib; first compound 0.05 µM) | relative viability (Alisertib + Foretinib; first compound 0.1581 µM) | relative viability (Alisertib + Foretinib; first compound 0.5 µM) | relative viability (Alisertib + Luminespib; first compound 0.005 µM) | relative viability (Alisertib + Luminespib; first compound 0.01581 µM) | relative viability (Alisertib + Luminespib; first compound 0.05 µM) | relative viability (Alisertib + Luminespib; first compound 0.1581 µM) | relative viability (Alisertib + Luminespib; first compound 0.5 µM) | relative viability (Alisertib + Navitoclax; first compound 0.005 µM) | relative viability (Alisertib + Navitoclax; first compound 0.01581 µM) | relative viability (Alisertib + Navitoclax; first compound 0.05 µM) | relative viability (Alisertib + Navitoclax; first compound 0.1581 µM) | relative viability (Alisertib + Navitoclax; first compound 0.5 µM) |
| --- | --- | --- | --- | --- | --- | --- | --- | --- | --- | --- | --- | --- | --- | --- | --- | --- | --- | --- | --- | --- |
| NCI-H358 | 0.735 | 0.486 | 0.202 | 0.159 | 0.14 | 0.608 | 0.485 | 0.181 | 0.111 | 0.0732 | 0.321 | 0.243 | 0.133 | 0.114 | 0.105 |  |  |  |  |  |
| NCI-H522 |  |  |  |  |  |  |  |  |  |  | 1.2 | 1 | 0.493 | 0.331 | 0.426 |  |  |  |  |  |
| NCI-H650 | 0.614 | 0.727 | 0.437 | 0.217 | 0.188 | 0.926 | 0.902 | 0.407 | 0.226 | 0.222 | 0.685 | 0.579 | 0.239 | 0.126 | 0.198 |  |  |  |  |  |
| NCI-H661 | 0.635 | 0.389 | 0.304 | 0.323 | 0.282 | 0.995 | 1.04 | 0.813 | 0.423 | 0.369 | 0.94 | 0.875 | 0.611 | 0.377 | 0.296 |  |  |  |  |  |
| NCI-H1299 | 0.936 | 0.932 | 0.71 | 0.271 | 0.189 | 1.05 | 1.05 | 0.665 | 0.333 | 0.192 |  |  |  |  |  | 1.03 | 1.01 | 0.801 | 0.395 | 0.204 |
| NCI-H1563 | 1.04 | 1.01 | 1.01 | 0.935 | 0.744 | 0.908 | 0.833 | 0.846 | 0.818 | 0.607 | 0.509 | 0.54 | 0.483 | 0.295 | 0.413 |  |  |  |  |  |
| NCI-H1650 |  |  |  |  |  | 1.19 | 0.873 | 0.653 | 0.23 | 0.231 | 0.19 | 0.194 | 0.171 | 0.196 | 0.177 | 0.967 | 0.613 | 0.286 | 0.145 | 0.131 |
| NCI-H1703 | 0.65 | 0.626 | 0.563 | 0.177 | 0.164 | 0.313 | 0.379 | 0.29 | 0.248 | 0.201 |  |  |  |  |  | 1.2 | 0.837 | 0.317 | 0.156 | 0.126 |
| NCI-H1792 | 0.546 | 0.372 | 0.177 | 0.076 | 0.0631 |  |  |  |  |  | 0.481 | 0.533 | 0.225 | 0.195 | 0.17 | 0.608 | 0.6 | 0.494 | 0.096 | 0.0626 |
| NCI-H2170 |  |  |  |  |  | 0.715 | 0.972 | 0.605 | 0.563 | 0.181 | 0.518 | 0.777 | 0.317 | 0.318 | 0.207 | 0.564 | 0.55 | 0.238 | 0.232 | 0.178 |
| NCI-H2342 |  |  |  |  |  | 1.04 | 1.09 | 0.652 | 0.464 | 0.363 | 0.646 | 0.662 | 0.555 | 0.447 | 0.368 |  |  |  |  |  |
